Earlier results as cited in patent US11149062B2, “HDAC inhibitors and methods of treatment using the same” (UWM Research Foundation, Inc., priority 2015, dated 2021).
“Also recorded” adds a separate entry of the source.

Assays:
adult mice = details: cited from earlier work
histones H3 and H4 = details: 30 min time point; cited from earlier work

SMILES: CC(/C=C/C(=O)NO)=C\[C@@H](C)C(=O)c1ccc(N(C)C)cc1 [TSA, trichostatin-A]
- object recognition memory 48 h after training (adult mice; single treatment immediately after training, 16.5 mM, chance 15 s): completely intact object recognition memory; also recorded: spent more time than chance
- object recognition memory, treatment delayed 3 h after training (adult mice; treatment delayed for 3 h after training): did not enhance memory
- acetylation of histones H3 and H4 in dorsal hippocampus (histones H3 and H4): increases the acetylation of histones H3 and H4
